Measured values taken from paper PMC2617778, “Discovery of a Novel Activator of KCNQ1-KCNE1 K^+ Channel Complexes” (PLoS ONE, 2009).

Columns and labels:
Format in all cases: cell-based
Q2/Q3 (KCNQ2/3) [1] = molecular target: T1, Q2/Q3 (KCNQ2/3) (Homo sapiens, UniProt O43525+O43526); assay: two-electrode voltage clamp, Xenopus oocytes; tail-current Boltzmann fit; settings: activator; 10 mM; ND96, pH 7.6
T1 construct: heterotetramer; equal mRNA amounts of both subunits in Xenopus laevis oocytes
Description: two-electrode voltage clamp, Xenopus oocytes; tail-current Boltzmann fit on Q2/Q3 (KCNQ2/3)

[2] = molecular target: T2, Q1/E3 (KCNQ1/KCNE3 complex) (Homo sapiens, UniProt P51787); assay: as above; settings: activator (raises current, no V1/2 shift); 10 mM; KD50 (50 mM K+), pH 7.6
T2 construct: with Potassium voltage-gated channel subfamily E member 3
T2 sequence (P51787 1-676): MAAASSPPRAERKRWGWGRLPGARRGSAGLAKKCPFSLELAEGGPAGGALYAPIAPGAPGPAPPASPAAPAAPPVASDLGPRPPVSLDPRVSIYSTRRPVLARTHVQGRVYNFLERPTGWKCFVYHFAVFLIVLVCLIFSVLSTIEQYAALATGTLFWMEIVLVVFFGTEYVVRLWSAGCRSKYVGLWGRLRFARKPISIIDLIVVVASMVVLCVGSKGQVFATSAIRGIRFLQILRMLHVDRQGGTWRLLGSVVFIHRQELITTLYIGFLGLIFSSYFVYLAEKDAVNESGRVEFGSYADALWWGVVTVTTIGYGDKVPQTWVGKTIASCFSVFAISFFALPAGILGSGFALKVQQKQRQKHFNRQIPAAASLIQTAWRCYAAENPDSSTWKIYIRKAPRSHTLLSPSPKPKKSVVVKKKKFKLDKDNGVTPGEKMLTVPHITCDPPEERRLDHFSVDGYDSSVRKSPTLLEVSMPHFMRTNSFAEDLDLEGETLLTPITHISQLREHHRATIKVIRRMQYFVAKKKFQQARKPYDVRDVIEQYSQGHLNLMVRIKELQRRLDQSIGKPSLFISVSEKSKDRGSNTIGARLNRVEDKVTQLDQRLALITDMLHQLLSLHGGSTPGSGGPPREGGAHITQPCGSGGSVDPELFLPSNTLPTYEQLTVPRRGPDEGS
T2 sequence (Q9Y6H6 1-103 partner): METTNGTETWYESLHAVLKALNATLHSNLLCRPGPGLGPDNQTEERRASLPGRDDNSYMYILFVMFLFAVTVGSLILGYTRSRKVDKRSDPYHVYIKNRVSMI
Description: two-electrode voltage clamp, Xenopus oocytes; tail-current Boltzmann fit on Q1/E3 (KCNQ1/KCNE3 complex)

[3] = molecular target: T3, Q1/E1 (KCNQ1/KCNE1 complex) (Homo sapiens, UniProt P51787); assay: as above; settings: reversible activator; 10 mM; ND96, pH 7.6
T3 construct: with Potassium voltage-gated channel subfamily E member 1
Description: two-electrode voltage clamp, Xenopus oocytes; tail-current Boltzmann fit on Q1/E1 (KCNQ1/KCNE1 complex)

Q2/Q3 (KCNQ2/3) [4] = molecular target: T1, Q2/Q3 (KCNQ2/3); assay: two-electrode voltage clamp, Xenopus oocytes; delta gmax on washout, hyperbola fit; settings: read-out: Phenylboronic Acid (PBA) / EC50
Description: two-electrode voltage clamp, Xenopus oocytes; delta gmax on washout, hyperbola fit on Q2/Q3 (KCNQ2/3)

KCNQ4 (Q4) = molecular target: T4, KCNQ4 (Q4) (Homo sapiens, UniProt P56696); assay: as above; settings: read-out: Phenylboronic Acid (PBA) / EC50
T4 construct: homotetramer expressed in Xenopus laevis oocytes
T4 sequence (P56696 1-695): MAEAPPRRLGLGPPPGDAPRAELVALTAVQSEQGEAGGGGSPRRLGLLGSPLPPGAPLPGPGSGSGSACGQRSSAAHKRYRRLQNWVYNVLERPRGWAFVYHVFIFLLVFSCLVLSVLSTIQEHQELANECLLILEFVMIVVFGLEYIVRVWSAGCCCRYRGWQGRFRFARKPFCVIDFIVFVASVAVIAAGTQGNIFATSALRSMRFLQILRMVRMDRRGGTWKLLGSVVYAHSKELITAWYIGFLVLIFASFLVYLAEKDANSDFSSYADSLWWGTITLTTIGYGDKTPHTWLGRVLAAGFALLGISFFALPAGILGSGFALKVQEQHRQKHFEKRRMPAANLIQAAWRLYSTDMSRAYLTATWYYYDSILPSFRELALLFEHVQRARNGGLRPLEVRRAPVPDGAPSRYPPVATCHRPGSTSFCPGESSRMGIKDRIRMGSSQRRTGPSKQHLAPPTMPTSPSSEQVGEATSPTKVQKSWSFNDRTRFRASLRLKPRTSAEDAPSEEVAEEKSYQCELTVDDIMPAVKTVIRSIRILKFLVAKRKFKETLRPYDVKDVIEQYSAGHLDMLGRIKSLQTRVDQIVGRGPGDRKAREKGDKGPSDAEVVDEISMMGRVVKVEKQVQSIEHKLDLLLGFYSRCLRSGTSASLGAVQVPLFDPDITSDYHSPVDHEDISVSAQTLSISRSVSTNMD
Description: two-electrode voltage clamp, Xenopus oocytes; delta gmax on washout, hyperbola fit on KCNQ4 (Q4)

[5] = molecular target: T3, Q1/E1 (KCNQ1/KCNE1 complex); assay: two-electrode voltage clamp, Xenopus oocytes; settings: inhibitor, ND96, pH 7.6, +40 mV, 2 s pulse

T1 sequence (O43526 whole entry): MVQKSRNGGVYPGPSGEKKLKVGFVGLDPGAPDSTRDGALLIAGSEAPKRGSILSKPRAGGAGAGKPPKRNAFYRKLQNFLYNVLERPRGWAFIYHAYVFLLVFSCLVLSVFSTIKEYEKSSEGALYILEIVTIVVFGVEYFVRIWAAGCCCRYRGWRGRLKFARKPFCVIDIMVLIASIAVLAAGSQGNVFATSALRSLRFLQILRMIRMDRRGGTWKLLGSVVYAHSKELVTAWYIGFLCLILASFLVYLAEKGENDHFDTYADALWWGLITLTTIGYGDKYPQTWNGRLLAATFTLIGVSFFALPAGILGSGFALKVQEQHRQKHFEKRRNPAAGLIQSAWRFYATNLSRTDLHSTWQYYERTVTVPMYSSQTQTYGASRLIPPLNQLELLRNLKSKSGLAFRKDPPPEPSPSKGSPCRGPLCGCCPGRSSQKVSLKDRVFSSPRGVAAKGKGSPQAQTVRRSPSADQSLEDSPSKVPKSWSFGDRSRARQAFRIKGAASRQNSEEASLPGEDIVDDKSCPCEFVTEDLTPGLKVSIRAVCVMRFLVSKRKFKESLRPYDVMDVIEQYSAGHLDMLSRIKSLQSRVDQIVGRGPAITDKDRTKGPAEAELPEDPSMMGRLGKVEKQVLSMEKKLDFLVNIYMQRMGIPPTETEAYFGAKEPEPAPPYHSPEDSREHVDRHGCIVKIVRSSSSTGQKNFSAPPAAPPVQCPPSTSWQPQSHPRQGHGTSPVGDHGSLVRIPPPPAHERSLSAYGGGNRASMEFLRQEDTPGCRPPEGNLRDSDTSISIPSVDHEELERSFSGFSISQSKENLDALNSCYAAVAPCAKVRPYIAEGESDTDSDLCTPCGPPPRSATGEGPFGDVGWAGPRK
T1 sequence (O43525 whole entry): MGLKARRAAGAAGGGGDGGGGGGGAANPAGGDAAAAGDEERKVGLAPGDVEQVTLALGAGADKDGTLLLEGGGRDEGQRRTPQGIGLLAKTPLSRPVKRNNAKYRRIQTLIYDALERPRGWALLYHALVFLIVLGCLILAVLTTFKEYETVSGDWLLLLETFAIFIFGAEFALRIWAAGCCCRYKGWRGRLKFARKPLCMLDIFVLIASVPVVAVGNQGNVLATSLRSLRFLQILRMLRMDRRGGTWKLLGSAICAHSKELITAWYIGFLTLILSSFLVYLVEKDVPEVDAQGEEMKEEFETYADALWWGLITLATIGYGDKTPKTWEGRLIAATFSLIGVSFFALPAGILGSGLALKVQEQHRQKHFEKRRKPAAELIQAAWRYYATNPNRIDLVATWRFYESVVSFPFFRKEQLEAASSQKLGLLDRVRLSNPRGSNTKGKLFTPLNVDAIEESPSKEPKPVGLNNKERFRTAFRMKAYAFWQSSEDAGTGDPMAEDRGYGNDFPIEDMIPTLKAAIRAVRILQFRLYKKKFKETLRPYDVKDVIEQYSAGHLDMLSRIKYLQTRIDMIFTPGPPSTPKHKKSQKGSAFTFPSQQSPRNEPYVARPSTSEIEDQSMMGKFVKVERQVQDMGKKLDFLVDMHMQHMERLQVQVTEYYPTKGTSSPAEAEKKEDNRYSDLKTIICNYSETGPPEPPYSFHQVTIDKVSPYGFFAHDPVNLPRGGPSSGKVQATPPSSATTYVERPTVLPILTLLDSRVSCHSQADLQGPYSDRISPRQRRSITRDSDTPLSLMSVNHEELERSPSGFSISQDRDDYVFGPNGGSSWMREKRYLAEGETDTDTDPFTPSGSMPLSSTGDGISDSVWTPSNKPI

OCc1ccccc1 [benzyl alcohol]
Phenylboronic Acid (PBA) / Δ V1/2 (mV) (Q2/Q3 (KCNQ2/3) [1]): −5.9±2.9 mV
Phenylboronic Acid (PBA) / Δ V1/2 (mV) [2]: 2.7±4.9 mV
Phenylboronic Acid (PBA) / Δ V1/2 (mV) [3]: −4.4±2.4 mV

OB(O)c1ccccc1 [PBA, phenylboronic acid]
EC50 (Q2/Q3 (KCNQ2/3) [4]): 3.7 ± 1.4 mM
EC50 (KCNQ4 (Q4)): > 10 mM

O=C(O)c1ccccc1 [benzoic acid]
reversible inhibition at 10 mM [5]: Perfusion of benzoic acid reversibly inhibited Q1/E1
